{
  "source": "patent US20110312968A1",
  "about": "“METHOD FOR OPTIMIZING THE TREATMENT OF CHRONIC MYELOID LEUKEMIA WITH ABL TYROSINE KINASE INHIBITORS” (priority 2008, published 2011)",
  "key": {"[1]": {"system": "Shp1 expression in KCL22r cells", "experiment": "5-Azacytidine treatment of Ima-resistant KCL22r cells: Shp1 expression", "assay_type": "cell-based", "settings": "Ima-resistant KCL22r cell line; along with demethylation of the SHP1 promoter region", "text": "(§1) In this study, we have first used, as model system, a couple of Ima-sensitive (KCL22s) and Ima-resistant (KCL22r) KCL22 cell lines. In these cells, Ima resistance is independent by the oncogenic Bcr/Abl activity. We have found a very low level of Shp1 (both mRNA and protein), a protein with a tumour suppressor activity, in the KCL22r resistant cells, when compared to KCL22s sensitive cells. […] Gain-of-function mutations have been described in various hemopoietic neoplasias including Juvenile Chronic Myelomonocytic Leukemia. In Ph+ cells, oncogenic Bcr/Abl protein activates Shp2 through Gab2, an adaptor protein that, once phosphorylated is able to bind SH2 domain of Shp2. Through complex interactions that may involve the two carboxy-terminal tyrosine residues (542 and 580) Shp2 is also a signal transducer of growth factor receptor. We hypothesized that, Shp1, through dephosphorylation, might modulate the activity of Shp2 and constitute an important mechanism of Ima resistance. […] The data on primary cells support the role of Shp1 in Ima resistance in patients."}, "[2]": {"system": "KCL22r cells", "experiment": "5-Azacytidine treatment of Ima-resistant KCL22r cells: Ima sensitivity (Ima growth inhibition)", "assay_type": "cell-based", "settings": "Ima-resistant KCL22r cell line after 5-AC treatment", "text": "as §1"}},
  "data": [
    {"smiles": "Nc1ncn([C@@H]2O[C@H](CO)[C@@H](O)[C@H]2O)c(=O)n1", "note": "[5-Azacytidine]", "values": [
      {"measurement": "expression of Shp1", "setting": "[1]", "value": "re-induced expression of Shp1"},
      {"measurement": "Ima sensitivity, i.e. Ima growth inhibition", "setting": "[2]", "value": "re-established the Ima sensitivity"}
    ]}
  ]
}
